One may read the GI50 as the concentration giving 50% growth inhibition. A lower GI50 goes with greater sensitivity of the cells.

Format in all cases: cell-based
The test system of assay [1] is T-Rex 293 cell line SC3 cells having increased expression of androgen receptor protein. As to the kind of experiment: Cellular growth inhibition, T-Rex 293 SC3 cells with doxycycline (increased androgen receptor expression). As to conditions: with 10 ng/mL doxycycline (increased androgen receptor), 72 hours, CellTiter-Glo 2.0. Here is the method:
(§1) The following types of cells were prepared for this experiment: (i) a T-Rex 293 cell line having increased expression of androgen receptor protein due to exposure to doxycycline and (ii) a T-Rex 293 cell line lacking increased expression of androgen receptor protein. Ability of the test compounds to inhibit proliferation of the foregoing cell types was evaluated according to the procedures set forth below.
(§2) The doxycycline-inducible androgen receptor protein expressing cell line was established using the following protocol: T-Rex 293 cells were purchased from Invitrogen (Cat #R71007) and transfected using Lipofectamine 2000 with the wild-type androgen receptor protein sequence cloned into the pcDNA4/TO vector. Transfected cells were selected using 400 μg/mL Zeocin (Invitrogen Cat #R25001). Following selection, single clones were raised and maintained in Dulbecco's Modified Eagle Medium (DMEM) supplemented with 10% w/w Tetracycline-free fetal bovine serum (FBS) and 250 μg/mL Zeocin. Clones were analyzed for expression of androgen receptor protein in the presence and absence of 10 ng/mL doxycycline (Sigma Cat #D9891), and a single doxycycline-inducible clone (hereinafter “SC3”) was selected for use in downstream assays.
(§3) The SC3 cells were seeded on poly-D-lysine coated, black clear-bottom 384-well plates at 2500/well, in 25 μL Phenol Red Free Dulbecco's Modified Eagle Medium (DMEM) supplemented with 10% w/w charcoal-dextran treated fetal bovine serum (FBS) and 1% w/w pen-strep, with or without 10 ng/mL doxycycline. Pen-Strep is a commercially available mixture of penicillin G and streptomycin, which is used in mammalian cell culture media to prevent bacterial contamination. Phenol Red Free Dulbecco's Modified Eagle Medium (DMEM) supplemented with 10% w/w charcoal-dextran treated fetal bovine serum (FBS) and 1% w/w pen-strep, with or without 10 ng/mL doxycycline is herein referred to as Treatment Medium. Following seeding of cells in the plates, the plates were spun at 300×g for 30 seconds, then equilibrated to room temperature for 30 minutes, and then deposited in a humidified tissue culture incubator maintained at 37° C. with 5% CO2.
(§4) At 24 hours after seeding of the cells, dilutions of test compound were prepared in DMSO and dissolved in Treatment Medium, to achieve a final DMSO concentration of 0.5% w/w, thereby providing the Test Compound Solution. A 25 μL aliquot of the Test Compound Solution was added to cells in the well plates. An equal volume of a solution containing DMSO and Treatment Medium was used as a negative control. Following treatment of cells with Test Compound Solution or said equal volume of a solution containing DMSO and Treatment Medium, the plates were spun at 300×g for 30 seconds, and then left in an incubator for 72 hours.
(§5) At the end of the treatment duration, cell viability was quantified with CellTiter-Glo 2.0 reagent (Promega Cat #G9243). For this purpose, plates were equilibrated to room temperature for 30 minutes, and then 25 μL of CellTiter-Glo 2.0 reagent was added to cells in the plate wells. Plates were then agitated on a shaker for two minutes at 500 rpm and subsequently incubated at room temperature for 10 minutes. Following incubation, the plates were spun at 3000×g for 30 seconds, then sealed with an optical adhesive cover, and luminescence readings were measured with an EnVision Plate Reader.
(§6) Data was normalized using zero luminescence for baseline. A four-parameter non-linear regression curve fit was applied to dose-response data in GraphPad Prism data analysis software to determine the half-maximal growth inhibitory concentration (GI50) for each test compound.
(In general: Cellular ATP, detected with luciferase, serves as a proxy for viable cell number.)

For assay [2], the system named is T-Rex 293 cell line SC3 cells lacking increased expression of androgen receptor protein. As to the kind of experiment: Cellular growth inhibition, T-Rex 293 SC3 cells without doxycycline. As to conditions: not exposed to doxycycline, 72 hours, CellTiter-Glo 2.0. As for the experimental part: as §1, §2, §3, §4, §5, §6
For the next assay, the system named is VCaP cells. Kind of assay: Cellular growth inhibition assay for VCaP cells. As to conditions: Homo sapiens, 72 hours, CellTiter-Glo 2.0. Here is the method:
VCaP cells were purchased from American Type Cell Culture (ATCC Cat #CRL2876) and then seeded on poly-D-lysine coated, black clear-bottom 384-well plates at 5000/well in 25 μL Dulbecco's Modified Eagle Medium (DMEM) supplemented with 10% w/w Fetal bovine serum (FBS) and 1% w/w Pen-Strep. Pen-Strep is a commercially available mixture of penicillin G and streptomycin, which is used in mammalian cell culture media to prevent bacterial contamination. Dulbecco's Modified Eagle Medium (DMEM) supplemented with 10% w/w fetal bovine serum (FBS) and 1% w/w Pen-Strep is herein referred to as Treatment Medium. Following seeding of cells in the plates, the plates were spun at 300×g for 30 seconds, then equilibrated to room temperature for 30 minutes, and then deposited in a humidified tissue culture incubator maintained at 37° C. with 5% CO2.
as §4
as §5, with “Reader. Data was normalized using zero luminescence for baseline.” for “Reader.”
A four-parameter non-linear regression curve fit was applied to dose-response data in GraphPad Prism data analysis software to determine the half-maximal growth inhibitory concentration (GI50) for each test compound.

Regarding `CC1(C)[C@H](NC(=O)c2cnc(N3CCC(OCCOCCOCCOCCOCCOCCOCCNS(=O)(=O)c4ccc(Nc5ncc(Br)c(Nc6cccc(F)c6C(N)=O)n5)cc4)CC3)nc2)C(C)(C)[C@H]1Oc1ccc(C#N)c(Cl)c1` [Compound I-16], the 50% growth inhibitory concentration (GI50) in assay [1] and in assay [2] was over 3.5 µM throughout.

As to `CN(CCOCCOCCOCCOCCOCCOCCNS(=O)(=O)c1ccc(Nc2ncc(Br)c(Nc3cccc(F)c3C(N)=O)n2)cc1)c1ncc(C(=O)N[C@H]2C(C)(C)[C@H](Oc3ccc(C#N)c(Cl)c3)C2(C)C)cn1` [Compound I-21], the GI50 in assay [1] and in assay [2] was over 3.5 µM in each case.

For `CCc1cnn2c(NCc3ccc(OCCCOC4CCN(c5ncc(C(=O)N[C@H]6C(C)(C)[C@H](Oc7ccc(C#N)c(Cl)c7)C6(C)C)cn5)CC4)nc3)cc(N3CCCC[C@H]3CCO)nc12` [Compound I-26], the GI50 in assay [1] was 1 to 3.5 µM; in assay [2], over 3.5 µM.

For the compound `CCc1cnn2c(NCc3ccc(OCCCCCOC4CCN(c5ncc(C(=O)N[C@H]6C(C)(C)[C@H](Oc7ccc(C#N)c(Cl)c7)C6(C)C)cn5)CC4)nc3)cc(N3CCCC[C@H]3CCO)nc12` [Compound I-28], the GI50 in assay [1] is 0.1 to 1 µM; in assay [2] it was over 3.5 µM.

`CCc1cnn2c(CCc3ccc(OCCCCCCOC4CCN(c5ncc(C(=O)N[C@H]6C(C)(C)[C@H](Oc7ccc(C#N)c(Cl)c7)C6(C)C)cn5)CC4)nc3)cc(N3CCCC[C@H]3CCO)nc12` [Compound I-29]: the GI50 was 0.1 to 1 µM in assay [1] and over 3.5 µM in assay [2].

`CCc1cnn2c(NCc3ccc(OCCCCCCCOC4CCN(c5ncc(C(=O)N[C@H]6C(C)(C)[C@H](Oc7ccc(C#N)c(Cl)c7)C6(C)C)cn5)CC4)nc3)cc(N3CCCC[C@H]3CCO)nc12` [Compound I-30]: the GI50 in assay [1] and in assay [2] was over 3.5 µM in each case.

Take `CCc1cnn2c(NCc3ccc(OCCCOCCOC4CCN(c5ncc(C(=O)N[C@H]6C(C)(C)[C@H](Oc7ccc(C#N)c(Cl)c7)C6(C)C)cn5)CC4)nc3)cc(N3CCCC[C@H]3CCO)nc12` [Compound I-32]: the results for the GI50 (in assay [1]; in assay [2]; in the assay on VCaP cells) were under 0.1 µM, 1 to 3.5 µM and under 0.1 µM, respectively.

In the case of `CCc1cnn2c(NCc3ccc(OCCOCCCOC4CCN(c5ncc(C(=O)N[C@H]6C(C)(C)[C@H](Oc7ccc(C#N)c(Cl)c7)C6(C)C)cn5)CC4)nc3)cc(N3CCCC[C@H]3CCO)nc12` [Compound I-33], the GI50 in assay [1] was under 0.1 µM; in assay [2], 1 to 3.5 µM; in the assay with VCaP cells, 0.1 to 1 µM.

`CCc1cnn2c(NCc3ccc(OCCCOCCCOC4CCN(c5ncc(C(=O)N[C@H]6C(C)(C)[C@H](Oc7ccc(C#N)c(Cl)c7)C6(C)C)cn5)CC4)nc3)cc(N3CCCC[C@H]3CCO)nc12` [Compound I-35]: the results for the GI50 (in assay [1]; in assay [2]; in the assay on VCaP cells) were under 0.1 µM, 0.1 to 1 µM and 0.1 to 1 µM, respectively.

Turning to `CCc1cnn2c(NCc3ccc(OCCOCCCCOC4CCN(c5ncc(C(=O)N[C@H]6C(C)(C)[C@H](Oc7ccc(C#N)c(Cl)c7)C6(C)C)cn5)CC4)nc3)cc(N3CCCC[C@H]3CCO)nc12` [Compound I-36], the GI50 in assay [1] is under 0.1 µM; in assay [2] it was over 3.5 µM; in the assay on VCaP cells it was under 0.1 µM.

On to `CCc1cnn2c(NCc3ccc(OCCCCCOCCOC4CCN(c5ncc(C(=O)N[C@H]6C(C)(C)[C@H](Oc7ccc(C#N)c(Cl)c7)C6(C)C)cn5)CC4)nc3)cc(N3CCCC[C@H]3CCO)nc12` [Compound I-37], for which the GI50 in assay [1] is 0.1 to 1 µM; in assay [2], over 3.5 µM; in the assay on VCaP cells, over 3.5 µM.

With `CCc1cnn2c(NCc3ccc(OCCCCOCCCOC4CCN(c5ncc(C(=O)N[C@H]6C(C)(C)[C@H](Oc7ccc(C#N)c(Cl)c7)C6(C)C)cn5)CC4)nc3)cc(N3CCCC[C@H]3CCO)nc12` [Compound I-38], the GI50 in assay [1] is 0.1 to 1 µM; in assay [2] it was over 3.5 µM; in the assay with VCaP cells it was 0.1 to 1 µM.

For `CCc1cnn2c(NCc3ccc(OCCCOCCCCOC4CCN(c5ncc(C(=O)N[C@H]6C(C)(C)[C@H](Oc7ccc(C#N)c(Cl)c7)C6(C)C)cn5)CC4)nc3)cc(N3CCCC[C@H]3CCO)nc12` [Compound I-39], the GI50 was under 0.1 µM in assay [1], over 3.5 µM in assay [2] and over 3.5 µM in the assay on VCaP cells.

As to `CCc1cnn2c(NCc3ccc(OCCOCCCCCOC4CCN(c5ncc(C(=O)N[C@H]6C(C)(C)[C@H](Oc7ccc(C#N)c(Cl)c7)C6(C)C)cn5)CC4)nc3)cc(N3CCCC[C@H]3CCO)nc12` [Compound I-40], the GI50 in assay [1] is under 0.1 µM; in assay [2] it was over 3.5 µM; in the assay on VCaP cells, over 3.5 µM.

On to `CCc1cnn2c(NCc3ccc(OCCCC4CCN(CC5CCN(c6ncc(C(=O)N[C@H]7C(C)(C)[C@H](Oc8ccc(C#N)c(Cl)c8)C7(C)C)cn6)CC5)CC4)nc3)cc(N3CCCC[C@H]3CCO)nc12` [Compound I-53], for which the GI50 in assay [1] was under 0.1 µM; in assay [2], 0.1 to 1 µM.

With `CCc1cnn2c(NCc3ccc(OCCCN4CCN(CC5CCN(c6cnc(C(=O)N[C@H]7C(C)(C)[C@H](Oc8ccc(C#N)c(Cl)c8)C7(C)C)cn6)CC5)CC4)nc3)cc(N3CCCC[C@@H]3CCO)nc12` [Compound I-56, N-((1r,3r)-3-(3-chloro-4-cyanophenoxy)-2,2,4,4-tetramethylcyclobutyl)-5-(4-((4-(3-((5-(((3-ethyl-5-((R)-2-(2-hydroxyethyl)piperidin-1-yl)pyrazolo[1,5-a]pyrimidin-7-yl)amino)methyl)pyridin-2-yl)oxy)propyl)piperazin-1-yl)methyl)piperidin-1-yl)pyrazine-2-carboxamide], the GI50 (in assay [1]; in assay [2]; in the assay with VCaP cells) was 0.1 to 1 µM in each case.

Take `CCc1cnn2c(NCc3ccc(OCCCN4CCN(CC5CCN(c6ccc(C(=O)N[C@H]7C(C)(C)[C@H](Oc8ccc(C#N)c(Cl)c8)C7(C)C)nc6)CC5)CC4)nc3)cc(N3CCCC[C@@H]3CCO)nc12` [Compound I-57, N-((1r,3r)-3-(3-chloro-4-cyanophenoxy)-2,2,4,4-tetramethylcyclobutyl)-5-(4-((4-(3-((5-(((3-ethyl-5-((R)-2-(2-hydroxyethyl)piperidin-1-yl)pyrazolo[1,5-a]pyrimidin-7-yl)amino)methyl)pyridin-2-yl)oxy)propyl)piperazin-1-yl)methyl)piperidin-1-yl)picolinamide]: the GI50 (in assay [1]; in assay [2]; in the assay on VCaP cells) was 0.1 to 1 µM each time.
